# PMC7413254 (Nature Communications, 2020)
# Where two headings read alike, the source gives them in different places.
# How the values were obtained:
# non-expressing oocytes [1] = type: cell-based, Xenopus laevis; conditions: non-expressing oocytes, total [3H]CQ transport, normalised to the oocyte type control
# Method in brief: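 Oocytes (ten per treatment, ≥4 independent frogs/days) were preloaded by injecting VF-6 in 25 nL ND96 at pH 5.0, 5.5, 6.0 or 7.0, or Na^+-free choline buffer, then uptake run 1.5 h, 27.5 °C, ND96 pH 5.5 by default. Internal concentrations assumed ~400 nL oocyte volume.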
# non-expressing oocytes [2] = test: cells; type: cell-based, Xenopus laevis; conditions: non-expressing oocytes, total [3H]CQ transport, normalised to the oocyte type control
# Method in brief: (§1)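 Washed oocytes (ten per treatment) were exposed to label in pH 5.5 ND96 for 1.5 h at 27.5 °C. Buffer was then removed, cells rinsed in ice-cold ND96, lysed in SDS and counted.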
# PfNT1 = biological target: T1, PfNT1 (Plasmodium falciparum, UniProt Q8IDM6); test: cell-based; type: cell-based; conditions: PfNT1 oocytes, total [3H]CQ transport, normalised to the oocyte type control
# T1 construct: expressed in transfected cells; host or cells: Xenopus laevis oocytes (stage V-VI), cRNA-injected
# T1 sequence (Q8IDM6 whole entry): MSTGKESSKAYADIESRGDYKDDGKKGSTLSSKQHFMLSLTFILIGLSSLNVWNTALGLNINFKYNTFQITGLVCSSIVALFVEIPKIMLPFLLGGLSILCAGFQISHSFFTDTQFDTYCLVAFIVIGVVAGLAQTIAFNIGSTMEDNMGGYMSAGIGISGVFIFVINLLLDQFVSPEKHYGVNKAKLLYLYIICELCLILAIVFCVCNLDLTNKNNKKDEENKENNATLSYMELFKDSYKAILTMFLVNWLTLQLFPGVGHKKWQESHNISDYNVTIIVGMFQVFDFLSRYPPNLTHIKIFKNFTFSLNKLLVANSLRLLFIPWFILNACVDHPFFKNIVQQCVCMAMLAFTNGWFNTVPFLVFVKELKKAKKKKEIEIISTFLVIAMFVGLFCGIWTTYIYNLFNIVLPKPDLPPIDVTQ
# Method in brief: (§2)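 Transport measured in Xenopus oocytes expressing the transporters, 1.5 h at 27.5 °C in ND96 pH 5.5 unless noted. For trans-stimulation, VF-6 injected in 25 nL ND96 at pH 5.0–7.0 or Na^+-free (choline) buffer; intracellular levels based on ~400 nL oocyte volume. Ten oocytes per treatment, ≥4 experiments.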
# PfCRT^Ecu1110 [3] = biological target: T2, PfCRT^Ecu1110 (Plasmodium falciparum, UniProt Q9N623, A220S/I356L/K76T/N326D); test: cell-based; type: cell-based; conditions: for Uptake of [3H]CQ (% PfCRTEcu1110 control), trans-stimulation / PfCRT-mediated [3H]CQ transport, trans-stimulation (% PfCRTEcu1110 control): PfCRTEcu1110 oocytes; for Uptake of [3H]CQ (% PfCRTEcu1110 control), trans-stimulation: total [3H]CQ transport, normalised to the oocyte type control; for PfCRT-mediated [3H]CQ transport, trans-stimulation (% PfCRTEcu1110 control): normalised to oocyte type control; for [3H]CQ transport (% PfCRTDd2 control), trans-stimulation, PfCRTEcu1110: PfCRT-mediated component (background subtracted), sheet title says normalised to PfCRTDd2 control, mean ± SEM, SEM
# T2 sequence (Q9N623 whole entry A220S/I356L/K76T/N326D): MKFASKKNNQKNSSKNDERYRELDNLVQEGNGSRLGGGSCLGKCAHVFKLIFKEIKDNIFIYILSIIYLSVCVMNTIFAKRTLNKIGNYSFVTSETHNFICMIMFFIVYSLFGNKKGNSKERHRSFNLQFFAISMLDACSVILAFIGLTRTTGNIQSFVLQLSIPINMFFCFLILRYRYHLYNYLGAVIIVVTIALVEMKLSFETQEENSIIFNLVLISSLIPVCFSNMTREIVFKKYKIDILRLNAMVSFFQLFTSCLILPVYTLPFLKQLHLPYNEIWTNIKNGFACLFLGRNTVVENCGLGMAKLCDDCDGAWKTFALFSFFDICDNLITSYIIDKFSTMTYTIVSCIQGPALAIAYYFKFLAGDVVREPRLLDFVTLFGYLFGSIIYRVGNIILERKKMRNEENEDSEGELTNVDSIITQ
# Method in brief: as §2
# PfCRT^3D7 [4] = biological target: T3, PfCRT^3D7 (Plasmodium falciparum, UniProt Q8IBZ9); test: cell-based; type: cell-based; conditions: PfCRT3D7 oocytes; for Uptake of [3H]CQ (% PfCRT3D7 control), trans-stimulation: total [3H]CQ transport, normalised to the oocyte type control; for PfCRT-mediated [3H]CQ transport, trans-stimulation (% PfCRT3D7 control): normalised to oocyte type control
# T3 sequence (Q8IBZ9 59-398): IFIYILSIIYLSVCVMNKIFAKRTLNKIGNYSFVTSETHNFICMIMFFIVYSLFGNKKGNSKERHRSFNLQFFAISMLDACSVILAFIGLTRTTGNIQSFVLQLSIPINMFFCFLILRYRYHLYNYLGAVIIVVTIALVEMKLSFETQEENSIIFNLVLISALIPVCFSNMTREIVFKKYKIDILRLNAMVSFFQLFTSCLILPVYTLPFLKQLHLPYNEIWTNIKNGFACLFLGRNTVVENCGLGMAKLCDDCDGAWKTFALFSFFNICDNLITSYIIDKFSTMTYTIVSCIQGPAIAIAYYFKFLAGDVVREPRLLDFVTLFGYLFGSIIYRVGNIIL
# Method in brief: as §2
# PfCRT^Dd2 [5] = biological target: T4, PfCRT^Dd2 (Plasmodium falciparum, UniProt Q9N623, A220S/I356T/K76T/M74I/N326S/N75E/Q271E/R371I); test: cell-based; type: cell-based; conditions: for Uptake of [3H]CQ (% PfCRTDd2 control), trans-stimulation / PfCRT-mediated [3H]CQ transport, trans-stimulation (% PfCRTDd2 control): PfCRTDd2 oocytes; for Uptake of [3H]CQ (% PfCRTDd2 control), trans-stimulation: total [3H]CQ transport, normalised to the oocyte type control; for PfCRT-mediated [3H]CQ transport, trans-stimulation (% PfCRTDd2 control): normalised to oocyte type control; for [3H]CQ transport (% PfCRTDd2 control), trans-stimulation, PfCRTDd2: PfCRT-mediated component (background subtracted), mean ± SEM, SEM
# T4 sequence (Q9N623 whole entry A220S/I356T/K76T/M74I/N326S/N75E/Q271E/R371I): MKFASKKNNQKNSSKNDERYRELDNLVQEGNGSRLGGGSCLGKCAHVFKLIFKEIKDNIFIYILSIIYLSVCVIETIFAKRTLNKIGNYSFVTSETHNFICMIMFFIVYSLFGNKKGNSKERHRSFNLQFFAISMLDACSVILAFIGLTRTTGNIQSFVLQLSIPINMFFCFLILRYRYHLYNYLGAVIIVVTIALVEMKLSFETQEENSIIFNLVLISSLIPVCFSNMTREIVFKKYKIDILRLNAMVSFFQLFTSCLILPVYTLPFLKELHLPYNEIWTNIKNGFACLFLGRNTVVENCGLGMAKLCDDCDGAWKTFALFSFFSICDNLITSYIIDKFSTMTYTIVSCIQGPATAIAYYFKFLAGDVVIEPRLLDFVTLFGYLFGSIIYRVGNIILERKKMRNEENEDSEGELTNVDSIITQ
# Method in brief: as §2
# PfCRT^Ecu1110 [6] = biological target: T2, PfCRT^Ecu1110; test: [3H]CQ uptake into Xenopus oocytes, cis-inhibition by unlabelled solute; type: cell-based; conditions: for Uptake of [3H]CQ (% PfCRTEcu1110 control), cis-inhibition / PfCRT-mediated [3H]CQ transport, cis-inhibition (% PfCRTEcu1110 control): PfCRTEcu1110 oocytes; for Uptake of [3H]CQ (% PfCRTEcu1110 control), cis-inhibition: total [3H]CQ transport, normalised to the oocyte type control; for PfCRT-mediated [3H]CQ transport, cis-inhibition (% PfCRTEcu1110 control): background [3H]CQ accumulation subtracted, normalised to oocyte type control; for [3H]CQ transport (% PfCRTEcu1110 control), cis-inhibition, PfCRTEcu1110: PfCRT-mediated component (background subtracted), sheet title says normalised to PfCRTDd2 control, mean ± SEM, SEM
# Method in brief: as §1
# PfCRT^Dd2 [7] = biological target: T4, PfCRT^Dd2; test: as above; type: cell-based; conditions: PfCRTDd2 oocytes, background [3H]CQ accumulation subtracted, normalised to oocyte type control
# Method in brief: as §1
# PfCRT^3D7 [8] = biological target: T3, PfCRT^3D7; test: cell-based; type: cell-based; conditions: PfCRT3D7 oocytes, total [3H]CQ transport, normalised to the oocyte type control
# Method in brief: as §1
# [9] = [test solute]i = 45 mM (30 mM for some solutes due to solubility)
# [10] = [test solute]i = 5 mM (intracellular)
# [11] = [test solute]i = 45 mM (intracellular; 30 mM for some solutes due to solubility)
# [12] = [test solute]i = 5 mM (injected)
substance,measurement,setting,value
DPVN [DN-4],"Uptake of [3H]CQ (% non-expressing oocyte control), trans-stimulation",non-expressing oocytes [1]; [test solute]i = 5 mM,99 ± 4.8 % non-expressing oocyte control
same,"Uptake of [3H]CQ (% non-expressing oocyte control), trans-stimulation",non-expressing oocytes [1]; [9],99 ± 1.0 % non-expressing oocyte control
same,"Uptake of [3H]CQ (% non-expressing oocyte control), cis-inhibition",non-expressing oocytes [2]; [test solute] = 0.5 mM,98 ± 4.6 % non-expressing oocyte control
same,"Uptake of [3H]CQ (% non-expressing oocyte control), cis-inhibition",non-expressing oocytes [2]; [test solute] = 1 mM,99 ± 4.7 % non-expressing oocyte control
same,"Uptake of [3H]CQ (% non-expressing oocyte control), cis-inhibition",non-expressing oocytes [2]; [test solute] = 2 mM,99 ± 3.7 % non-expressing oocyte control
same,"Uptake of [3H]CQ (% PfNT1 control), trans-stimulation",PfNT1; [test solute]i = 5 mM,100 ± 3.2 % PfNT1 control
same,"Uptake of [3H]CQ (% PfNT1 control), trans-stimulation",PfNT1; [9],99 ± 3.2 % PfNT1 control
same,"Uptake of [3H]CQ (% PfCRTEcu1110 control), trans-stimulation",PfCRT^Ecu1110 [3]; [test solute]i = 5 mM,105 ± 3.6 % PfCRTEcu1110 control
same,"Uptake of [3H]CQ (% PfCRTEcu1110 control), trans-stimulation",PfCRT^Ecu1110 [3]; [9],100 ± 2.2 % PfCRTEcu1110 control
same,"PfCRT-mediated [3H]CQ transport, trans-stimulation (% PfCRTEcu1110 control)",PfCRT^Ecu1110 [3]; [10],102 ± 2.3 % PfCRTEcu1110 control
same,"PfCRT-mediated [3H]CQ transport, trans-stimulation (% PfCRTEcu1110 control)",PfCRT^Ecu1110 [3]; [11],98 ± 3.2 % PfCRTEcu1110 control
same,"[3H]CQ transport (% PfCRTDd2 control), trans-stimulation, PfCRTEcu1110",PfCRT^Ecu1110 [3]; [12],31 ± 1.4 % PfCRTEcu1110 control
same,"[3H]CQ transport (% PfCRTDd2 control), trans-stimulation, PfCRTEcu1110",PfCRT^Ecu1110 [3]; [9],30 ± 1.4 % PfCRTEcu1110 control
same,"Uptake of [3H]CQ (% PfCRT3D7 control), trans-stimulation",PfCRT^3D7 [4]; [test solute]i = 5 mM,121 ± 3.4 % PfCRT3D7 control
same,"Uptake of [3H]CQ (% PfCRT3D7 control), trans-stimulation",PfCRT^3D7 [4]; [9],153 ± 5.0 % PfCRT3D7 control
same,"PfCRT-mediated [3H]CQ transport, trans-stimulation (% PfCRT3D7 control)",PfCRT^3D7 [4]; [10],116 ± 2.3 % PfCRT3D7 control
same,"PfCRT-mediated [3H]CQ transport, trans-stimulation (% PfCRT3D7 control)",PfCRT^3D7 [4]; [11],147 ± 4.2 % PfCRT3D7 control
same,"Uptake of [3H]CQ (% PfCRTDd2 control), trans-stimulation",PfCRT^Dd2 [5]; [test solute]i = 5 mM,103 ± 1.1 % PfCRTDd2 control
same,"Uptake of [3H]CQ (% PfCRTDd2 control), trans-stimulation",PfCRT^Dd2 [5]; [9],100 ± 3.8 % PfCRTDd2 control
same,"PfCRT-mediated [3H]CQ transport, trans-stimulation (% PfCRTDd2 control)",PfCRT^Dd2 [5]; [10],99 ± 4.1 % PfCRTDd2 control
same,"PfCRT-mediated [3H]CQ transport, trans-stimulation (% PfCRTDd2 control)",PfCRT^Dd2 [5]; [11],98 ± 3.9 % PfCRTDd2 control
same,"[3H]CQ transport (% PfCRTDd2 control), trans-stimulation, PfCRTDd2",PfCRT^Dd2 [5]; [12],99 ± 4.1 % PfCRTDd2 control
same,"[3H]CQ transport (% PfCRTDd2 control), trans-stimulation, PfCRTDd2",PfCRT^Dd2 [5]; [9],98 ± 3.9 % PfCRTDd2 control
same,"Uptake of [3H]CQ (% PfCRTEcu1110 control), cis-inhibition",PfCRT^Ecu1110 [6]; [test solute] = 0.5 mM,73 ± 4.4 % PfCRTEcu1110 control
same,"Uptake of [3H]CQ (% PfCRTEcu1110 control), cis-inhibition",PfCRT^Ecu1110 [6]; [test solute] = 1 mM,66 ± 3.8 % PfCRTEcu1110 control
same,"Uptake of [3H]CQ (% PfCRTEcu1110 control), cis-inhibition",PfCRT^Ecu1110 [6]; [test solute] = 2 mM,52 ± 3.3 % PfCRTEcu1110 control
same,"PfCRT-mediated [3H]CQ transport, cis-inhibition (% PfCRTEcu1110 control)",PfCRT^Ecu1110 [6]; [test solute] = 1 mM,61 ± 2.9 % PfCRTEcu1110 control
same,"PfCRT-mediated [3H]CQ transport, cis-inhibition (% PfCRTEcu1110 control)",PfCRT^Ecu1110 [6]; [test solute] = 2 mM,48 ± 2.4 % PfCRTEcu1110 control
same,"[3H]CQ transport (% PfCRTEcu1110 control), cis-inhibition, PfCRTEcu1110",PfCRT^Ecu1110 [6]; [test solute] = 0.5 mM,21 ± 0.6 % PfCRTEcu1110 control
same,"[3H]CQ transport (% PfCRTEcu1110 control), cis-inhibition, PfCRTEcu1110",PfCRT^Ecu1110 [6]; [test solute] = 1 mM,19 ± 0.4 % PfCRTEcu1110 control
same,"[3H]CQ transport (% PfCRTEcu1110 control), cis-inhibition, PfCRTEcu1110",PfCRT^Ecu1110 [6]; [test solute] = 2 mM,15 ± 0.1 % PfCRTEcu1110 control
same,"PfCRT-mediated [3H]CQ transport, cis-inhibition (% PfCRTDd2 control)",PfCRT^Dd2 [7]; [test solute] = 0.5 mM,63 ± 3.1 % PfCRTDd2 control
same,"PfCRT-mediated [3H]CQ transport, cis-inhibition (% PfCRTDd2 control)",PfCRT^Dd2 [7]; [test solute] = 1 mM,47 ± 3.1 % PfCRTDd2 control
same,"PfCRT-mediated [3H]CQ transport, cis-inhibition (% PfCRTDd2 control)",PfCRT^Dd2 [7]; [test solute] = 2 mM,42 ± 3.2 % PfCRTDd2 control
same,"Uptake of [3H]CQ (% PfCRT3D7 control), cis-inhibition",PfCRT^3D7 [8]; [test solute] = 0.5 mM,100 ± 2.6 % PfCRT3D7 control
same,"Uptake of [3H]CQ (% PfCRT3D7 control), cis-inhibition",PfCRT^3D7 [8]; [test solute] = 1 mM,100 ± 3.7 % PfCRT3D7 control
same,"Uptake of [3H]CQ (% PfCRT3D7 control), cis-inhibition",PfCRT^3D7 [8]; [test solute] = 2 mM,100 ± 4.8 % PfCRT3D7 control
